# Experimental data: patent US8163737B2 (Vertex Pharmaceuticals Incorporated, priority 2006, dated 2012)
# How the values were obtained:
# endogenous CGRP receptor = endogenous CGRP receptor (Homo sapiens, UniProt O60894+Q16602); test: CGRP functional antagonism using SK-N-MC-BLA (4C10), β-lactamase transcriptional reporter assay; format: cell-based; conditions: SK-N-MC (4C10) cells, inhibition of β-lactamase expression in the presence of 200 pM CGRP
# [1] = molecular target: T1, CGRP receptor (SK-N-MC membrane) (Homo sapiens, UniProt O60894+Q16602); test: I125-CGRP binding displacement assay on purified SK-N-MC membrane
# T1 construct: Purified SK-N-MC membrane was purchased from Perkin Elmer; purchased Perkin Elmer; host or cells: SK-N-MC membrane
# Method: Purified SK-N-MC membrane was purchased from Perkin Elmer. The membrane was thawed quickly and placed on ice. The compounds were diluted with CGRP binding solution (25 mM Tris-HCl, pH7.4, 5 mM MgCl2, 0.1% BSA and 0.05% Tween). The membrane was diluted 1:20 with the binding solution and homogenized with Tissue Matster-50 Homogenizer (Omni International) for 30 sec. The homogenized membrane was added to compounds in the binding solution. […] After 2 hour incubation at room temperature, the reaction was stopped by rapid filtration through 0.5% PEI treated GF/C filter plate (Perkin Elmer) and the filter plate was washed with ice-cold washing solution (50 mM Tris HCl, pH7.4, 5 mM MgCl2 and 0.1% BSA) using cell harvestor (Tomtec). The radioactivity of the filter plates were read on Topcount (Packard). The nonspecific binding was determined in the control reaction where 1 uM unlabelled CGRP was preincubated with the membrane prior to I125-CGRP addition. The total binding was determined in the control reaction of the membrane and I125-CGRP in the absence of compound. The percent displacement of I125-CGRP with compounds was calculated using nonspecific and total binding controls. The curve fitting was carried out using MOD3.
# T1 sequence (Q16602 23-461): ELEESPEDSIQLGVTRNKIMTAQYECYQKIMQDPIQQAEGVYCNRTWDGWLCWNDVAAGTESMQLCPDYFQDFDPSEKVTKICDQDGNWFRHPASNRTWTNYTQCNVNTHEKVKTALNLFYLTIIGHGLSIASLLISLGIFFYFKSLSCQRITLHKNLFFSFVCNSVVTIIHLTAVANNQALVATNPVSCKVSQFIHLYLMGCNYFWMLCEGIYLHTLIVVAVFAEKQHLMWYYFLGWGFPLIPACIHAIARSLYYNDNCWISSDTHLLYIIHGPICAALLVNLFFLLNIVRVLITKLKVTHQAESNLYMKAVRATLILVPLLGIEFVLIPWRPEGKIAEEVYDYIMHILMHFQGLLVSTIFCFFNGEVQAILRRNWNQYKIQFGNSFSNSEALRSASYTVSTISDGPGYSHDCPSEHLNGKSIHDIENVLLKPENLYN
# T1 sequence (O60894 27-148): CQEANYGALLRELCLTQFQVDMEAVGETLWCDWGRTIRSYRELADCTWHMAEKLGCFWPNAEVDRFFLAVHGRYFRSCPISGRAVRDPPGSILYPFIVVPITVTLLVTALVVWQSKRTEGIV
# Chain of endogenous CGRP receptor (Q16602 23-461): as the sequence (Q16602 23-461) above
# Chain of endogenous CGRP receptor (O60894 27-148): as the sequence (O60894 27-148) above
SMILES,IC50 (endogenous CGRP receptor) [nM],Ki [1] [nM]
CC(C)CCN1C(=O)C(CC(=O)N2CCC(N3Cc4ccccc4NC3=O)CC2)S(=O)(=O)C1c1ccccc1 (stereo not shown) [Compound 122],> 5000,< 1000
CC(C)(C)CCN1C(=O)C(CC(=O)N2CCC(N3CCc4ccccc4NC3=O)CC2)SC1c1ccccc1N1CCC(O)CC1 (stereo not shown) [Compound 150],< 1000,< 1000
CC(C)CCN1C(=O)C(CC(=O)N2CCC(N3Cc4ccccc4NC3=O)CC2)SC1c1ccccc1C#N (stereo not shown) [Compound 227],< 1000,< 1000
CC(C)(C)N1CCN(c2c(F)cccc2[C@@H]2S[C@@H](CC(=O)N3CCC(N4CCc5ccccc5NC4=O)CC3)C(=O)N2CC2CC2)CC1 [Compound 488],< 1000,< 1000
CC(C)CCN1C(=O)C(CC(=O)N2CCC(N3Cc4ccccc4NC3=O)CC2)SC12CCSCC2 (stereo not shown) [Compound 174],< 1000,< 1000
CC(C)(C)CCN1C(=O)C(CC(=O)N2CCC(N3Cc4ccccc4NC3=O)CC2)SC12CCCc1ccccc12 (stereo not shown) [Compound 315],< 1000,< 1000
CC(C)(C)N1CCN(c2c(F)cccc2C2S[C@@H](CC(=O)N3CCC(n4c(=O)[nH]c5ncccc54)CC3)C(=O)N2CC2CCOCC2)CC1 (stereo partly shown) [Compound 525],< 1000,< 1000
COCCN1C(=O)[C@H](CC(=O)N2CCC(N3CCc4ccccc4NC3=O)CC2)SC1c1cccc(F)c1N1CCN(C(C)(C)C)CC1 (stereo partly shown) [Compound 534],< 1000,< 1000
CC(C)CCN1C(=O)C(CC(=O)N2CCC(n3cc(-c4ccccc4)[nH]c3=O)CC2)SC1C1CCCC1 (stereo not shown) [Compound 87],1000 to 5000,1000 to 5000
CC(C)(C)CCN1C(=O)[C@H](CC(=O)N2CCC(n3c(=O)[nH]c4ncccc43)CC2)SC1c1cccc(F)c1N1CCN(C(=O)OC(C)(C)C)CC1 (stereo partly shown) [Compound 549],1000 to 5000,< 1000
CC(C)(C)CCN1C(=O)C(CC(=O)N2CCC(N3CCc4ccccc4NC3=O)CC2)SC1c1cccc(F)c1N1CCNCC1 (stereo not shown) [Compound 391],> 5000,> 5000
CC(C)CC1SC(CC(=O)N2CCC(N3Cc4ccccc4NC3=O)CC2)C(=O)N1CC(F)(F)F (stereo not shown) [Compound 226],1000 to 5000,< 1000
CC(C)CCN1C(=O)C(CC(=O)N2CCC(N3Cc4ccccc4NC3=O)CC2)SC1c1ccccc1 (stereo not shown) [Compound 12],< 1000,< 1000
Cc1ccccc1C1SC(CC(=O)N2CCC(N3CCc4ccccc4NC3=O)CC2)C(=O)N1CCC(C)C (stereo not shown) [Compound 171],< 1000,< 1000
"CC(C)(C)CCN1C(=O)[C@H](CC(=O)N2CCC(N3CCc4ccccc4NC3=O)CC2)S[C@H]1c1ccccc1C1CCNCC1 [Compound 502, 4,5-Dihydro-3-(1-(2-((2S,5S)-3-(3,3-dimethylbutyl)-4-oxo-2-(2-(piperidin-4-yl)phenyl)thiazolidin-5-yl)acetyl)piperidin-4-yl)-1H-benzo[d][1,3]diazepin-2(3H)-one]",< 1000,< 1000
CC(C)(C)CCN1C(=O)[C@H](CC(=O)N2CCC(N3CCc4ccccc4NC3=O)CC2)SC1c1ccccc1C1CCN(C(=O)OC(C)(C)C)CC1 (mixture of isomers) [Compound 500],> 5000,< 1000
CN1CCN(c2cc(F)ccc2C2SC(CC(=O)N3CCC(n4cc(-c5ccccc5)[nH]c4=O)CC3)C(=O)N2CCC(C)(C)C)CC1 (stereo not shown) [Compound 363],< 1000,< 1000
CC(C)OCCN1C(=O)[C@H](CC(=O)N2CCC(n3c(=O)[nH]c4ncccc43)CC2)SC1c1cccc(F)c1N1CCN(C(C)(C)C)CC1 (stereo partly shown) [Compound 530],< 1000,< 1000
CC(C)(C)CCN1C(=O)C(CC(=O)N2CCC(n3c(=O)[nH]c4ccccc43)CC2)S[C@H]1c1ccccc1N1CCC(O)CC1 (stereo partly shown) [Compound 301],< 1000,< 1000
"CC(C)(C)CCN1C(=O)[C@H](CC(=O)N2CCC(N3CCc4ccccc4NC3=O)CC2)SC1c1cnc(C2CCNCC2)s1 (stereo partly drawn) [Compound 497, (5S)-3-(3,3-Dimethylbutyl)-5-(2-oxo-2-(4-(2-oxo-4,5-dihydro-1H-benzo[d][1,3]diazepin-3(2H)-yl)piperidin-1-yl)ethyl)-2-(2-(piperidin-4-yl)thiazol-5-yl)thiazolidin-4-one]",< 1000,< 1000
CC(C)(C)CCN1C(=O)[C@H](CC(=O)N2CCC(n3c(=O)[nH]c4ncccc43)CC2)SC1c1cccc(F)c1N1CCC(c2ccncc2)CC1 (stereo partly shown) [Compound 556],< 1000,< 1000
CN1CCN(c2ccc(F)cc2C2SC(CC(=O)N3CCC(n4c(=O)[nH]c5ncccc54)CC3)C(=O)N2CCC(C)(C)C)CC1 (stereo not shown) [Compound 353],< 1000,< 1000

SMILES,IC50 (endogenous CGRP receptor) [nM],Ki [1] [nM]
CC(C)(C)N1CCN(c2c(F)cccc2C2S[C@@H](CC(=O)N3CCC(n4c(=O)[nH]c5ncccc54)CC3)C(=O)N2Cc2ccccc2)CC1 (stereo partly shown) [Compound 540],< 1000,< 1000
CC(C)(C)CCN1C(=O)[C@H](CC(=O)N2CCC(n3c(=O)[nH]c4ncccc43)CC2)SC1c1cccc(F)c1C1CCN(C(=O)OC(C)(C)C)CC1 (stereo partly shown) [Compound 551],> 5000,1000 to 5000
CC(C)CCN1C(=O)C(CC(=O)N2CCC(N3CCc4ccccc4NC3=O)CC2)SC1C1CCCCC1 (stereo not shown) [Compound 37],< 1000,< 1000
CC(C)N1CCN(c2c(F)cccc2C2SC(CC(=O)N3CCC(N4CCc5ccccc5NC4=O)CC3)C(=O)N2CCC(C)(C)C)CC1 (stereo not shown) [Compound 340],> 5000,> 5000
"CC(C)(C)CCN1C(=O)[C@H](CC(=O)N2CCC(n3c(=O)[nH]c4ncccc43)CC2)SC1c1cccc(F)c1NCCN1CCCCC1 (stereo partly drawn) [Compound 532, 1-(1-(2-((5S)-2-(2-(2-(Piperidin-1-yl)ethylamino)-3-fluorophenyl)-3-(3,3-dimethylbutyl)-4-oxothiazolidin-5-yl)acetyl)piperidin-4-yl)-1H-imidazo[4,5-b]pyridin-2(3H)-one]",< 1000,< 1000
CC(C)CCN1C(=O)C(CC(=O)N2CCC(N3Cc4ccccc4NC3=O)CC2)SC1c1ccccc1Br (stereo not shown) [Compound 268],< 1000,< 1000
CC(C)(C)CCN1C(=O)[C@H](CC(=O)N2CCC(N3CCc4ccccc4NC3=O)CC2)SC1c1cccc(F)c1N1CCC(F)C1 (stereo partly shown) [Compound 481],1000 to 5000,< 1000
CN(C)c1ccccc1C1SC(CC(=O)N2CCC(N3Cc4ccccc4NC3=O)CC2)C(=O)N1CCC(C)(C)C (stereo not shown) [Compound 211],1000 to 5000,< 1000
CC(C)CCN1C(=O)C(CC(=O)N2CCC(N3Cc4ccccc4NC3=O)CC2)SC1c1cccc(OC(F)(F)F)c1 (stereo not shown) [Compound 169],1000 to 5000,< 1000
CC(C)N1CCN(c2cccc(Cl)c2[C@H]2S[C@H](CC(=O)N3CCC(N4CCc5ccccc5NC4=O)CC3)C(=O)N2CCC(C)(C)C)CC1 [Compound 434],< 1000,< 1000
CC(C)CCN1C(=O)C(CC(=O)N2CCC(N3CCc4ccccc4NC3=O)CC2)SC1c1ccccc1-n1ccnc1 (stereo not shown) [Compound 260],< 1000,< 1000
O=C(CC1SC(c2ccccc2)N(CCc2ccccn2)C1=O)N1CCC(N2Cc3ccccc3NC2=O)CC1 (stereo not shown) [Compound 128],1000 to 5000,< 1000
CCN1CCN(c2c(F)cccc2C2SC(CC(=O)N3CCC(N4CCc5ccccc5NC4=O)CC3)C(=O)N2CCC(C)(C)C)CC1 (stereo not shown) [Compound 345],< 1000,< 1000
CN1CCN(c2ccc(F)cc2C2SC(CC(=O)N3CCC(N4Cc5ccccc5NC4=O)CC3)C(=O)N2CCC(C)(C)C)CC1 (stereo not shown) [Compound 351],1000 to 5000,< 1000
CC(C)CN1C(=O)[C@H](CC(=O)N2CCC(n3c(=O)[nH]c4ncccc43)CC2)S[C@H]1c1cccc(F)c1N1CCN(C(C)(C)C)CC1 [Compound 496],< 1000,< 1000
CC(C)(C)CCN1C(=O)C(CC(=O)N2CCC(N3CCc4ccccc4NC3=O)CC2)SC1c1ccccc1F (stereo not shown) [Compound 244],< 1000,< 1000
CC(C)(C)CCN1C(=O)C(CC(=O)N2CCC(N3CCc4ccccc4NC3=O)CC2)SC1c1ccccc1C1=CCNCC1 (stereo not shown) [Compound 414],1000 to 5000,> 5000
CC(C)(C)CCN1C(=O)[C@H](CC(=O)N2CCC(N3CCc4ccccc4NC3=O)CC2)SC1c1cccc(F)c1N1CCC(O)C1 (stereo partly shown) [Compound 463],1000 to 5000,< 1000
CCN1CCN(c2c(F)cccc2C2SC(CC(=O)N3CCC(n4c(=O)[nH]c5ncccc54)CC3)C(=O)N2CCC(C)(C)C)CC1 (stereo not shown) [Compound 349],< 1000,< 1000
CN1CCN(c2ccccc2C2SC(CC(=O)N3CCC(c4cc5ccccc5[nH]c4=O)CC3)C(=O)N2CCC(C)(C)C)CC1 (stereo not shown) [Compound 303],< 1000,< 1000
CC(C)OCCN1C(=O)[C@H](CC(=O)N2CCC(N3CCc4ccccc4NC3=O)CC2)SC1c1cccc(F)c1N1CCN(C(C)(C)C)CC1 (stereo partly shown) [Compound 526],< 1000,< 1000
CN(C)[C@H]1CCN(c2ccccc2C2SC(CC(=O)N3CCC(N4CCc5ccccc5NC4=O)CC3)C(=O)N2CCC(C)(C)C)C1 (stereo partly shown) [Compound 407],< 1000,< 1000
